According to ChEMBL document CHEMBL1201862, “PubChem BioAssay data set” (2004):
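These data come from cells grown in 96-well plates and exposed to compound for 48 hours at five concentrations. GI50: concentration for 50% inhibition of growth.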 The source made the active and inactive calls. No stated cut-off is given here; in the data, active = GI50 up to about 1.1 µM and inactive = higher.

Columns and labels:
Assay in all cases: inhibition of tumour cell growth, NCI panel, 48 h
[1] = system: 786-0
[2] = system: A498
[3] = system: A549
[4] = system: ACHN
[5] = system: BT-549
[6] = system: CAKI-1
[7] = system: CCRF-CEM
[8] = system: COLO 205
[9] = system: DU-145
[10] = system: EKVX
[11] = system: HCT-116
[12] = system: HCT-15
[13] = system: HL-60
[14] = system: HOP-62
[15] = system: HOP-92
[16] = system: HT-29
[17] = system: Hs-578T
[18] = system: IGROV-1
[19] = system: K562
[20] = system: LOX IMVI
[21] = system: M14
[22] = system: MCF7
[23] = system: MDA-MB-231
[24] = system: MDA-MB-435
[25] = system: MDA-N
[26] = system: MOLT-4
[27] = system: Malme-3M
[28] = system: NCI-H226
[29] = system: NCI-H23
[30] = system: NCI-H522
[31] = system: NCI/ADR-RES
[32] = system: OVCAR-3
[33] = system: OVCAR-4
[34] = system: OVCAR-5
[35] = system: OVCAR-8
[36] = system: PC-3
[37] = system: RPMI-8226
[38] = system: RXF 393
[39] = system: SF-295
[40] = system: SF-539
[41] = system: SK-MEL-2
[42] = system: SK-MEL-5
[43] = system: SK-OV-3
[44] = system: SN12C
[45] = system: SNB-19
[46] = system: SNB-75
[47] = system: SR
[48] = system: T47D
[49] = system: TK-10
[50] = system: U-251
[51] = system: UACC-257
[52] = system: UACC-62
[53] = system: UO-31
[54] = system: KM12
[55] = system: NCI-H460
[56] = system: SK-MEL-28
[57] = system: SW-620
[58] = system: SF-268

S=C(NC/C(Br)=C/Br)Nc1cccc2ccccc12
GI50 [1]: 38.8 µM (inactive)
GI50 [2]: 33.5 µM (inactive)
GI50 [3]: 34.2 µM (inactive)
GI50 [4]: 28.9 µM (inactive)
GI50 [5]: 33.3 µM (inactive)
GI50 [6]: 29.2 µM (inactive)
GI50 [7]: 18.3 µM (inactive)
GI50 [8]: 18.5 µM (inactive)
GI50 [9]: 30.9 µM (inactive)
GI50 [10]: 28.9 µM (inactive)
GI50 [11]: 24.2 µM (inactive)
GI50 [12]: 31.3 µM
GI50 [13]: 12.9 µM (inactive)
GI50 [14]: 30.3 µM (inactive)
GI50 [15]: 20.2 µM (inactive)
GI50 [16]: 34.5 µM (inactive)
GI50 [17]: > 100 µM (inactive)
GI50 [18]: 29.3 µM (inactive)
GI50 [19]: 11.7 µM (inactive)
GI50 [20]: 24.8 µM (inactive)
GI50 [21]: 16.8 µM (inactive)
GI50 [22]: 20 µM (inactive)
GI50 [23]: 19.4 µM (inactive)
GI50 [24]: 34 µM (inactive)
GI50 [25]: 25.4 µM (inactive)
GI50 [26]: 17.8 µM (inactive)
GI50 [27]: 28.9 µM (inactive)
GI50 [28]: 26.7 µM (inactive)
GI50 [29]: 23.5 µM (inactive)
GI50 [30]: 20 µM (inactive)
GI50 [31]: 19 µM (inactive)
GI50 [32]: 24 µM (inactive)
GI50 [33]: 30.3 µM (inactive)
GI50 [34]: 33.6 µM (inactive)
GI50 [35]: 27.6 µM (inactive)
GI50 [36]: 23.1 µM (inactive)
GI50 [37]: 15.4 µM (inactive)
GI50 [38]: 31.3 µM (inactive)
GI50 [39]: 33.3 µM (inactive)
GI50 [40]: 25.5 µM (inactive)
GI50 [41]: 20.4 µM (inactive)
GI50 [42]: 16.4 µM (inactive)
GI50 [43]: 37.5 µM (inactive)
GI50 [44]: 24.4 µM (inactive)
GI50 [45]: 34 µM (inactive)
GI50 [46]: 33.5 µM (inactive)
GI50 [47]: 15.4 µM (inactive)
GI50 [48]: 40.4 µM (inactive)
GI50 [49]: 40.6 µM (inactive)
GI50 [50]: 30.3 µM (inactive)
GI50 [51]: 22.5 µM (inactive)
GI50 [52]: 24.2 µM (inactive)
GI50 [53]: 20.9 µM (inactive)

O=C(OCc1ccccc1)N1CCNCCNCCN(C(=O)OCc2ccccc2)CCNCC1
GI50 [1]: 14.3 µM (inactive)
GI50 [2]: 20.8 µM (inactive)
GI50 [3]: 63.4 µM (inactive)
GI50 [4]: 39.9 µM (inactive)
GI50 [5]: 60.7 µM (inactive)
GI50 [6]: 20 µM (inactive)
GI50 [7]: 18.8 µM (inactive)
GI50 [8]: 13.6 µM (inactive)
GI50 [9]: > 100 µM (inactive)
GI50 [10]: 24 µM (inactive)
GI50 [11]: 14 µM (inactive)
GI50 [12]: 18.7 µM
GI50 [13]: 8.2 µM (inactive)
GI50 [14]: 36.7 µM (inactive)
GI50 [15]: 20.6 µM (inactive)
GI50 [16]: 12.1 µM (inactive)
GI50 [17]: 19.1 µM (inactive)
GI50 [18]: 32.1 µM (inactive)
GI50 [19]: 13 µM (inactive)
GI50 [54]: 29.6 µM (inactive)
GI50 [20]: 16.3 µM (inactive)
GI50 [21]: 16.6 µM (inactive)
GI50 [22]: 17.8 µM (inactive)
GI50 [23]: 16.1 µM (inactive)
GI50 [24]: 16.1 µM (inactive)
GI50 [25]: 16.2 µM (inactive)
GI50 [26]: 16.7 µM (inactive)
GI50 [27]: 20.1 µM (inactive)
GI50 [28]: > 100 µM (inactive)
GI50 [55]: 21.2 µM (inactive)
GI50 [30]: 15.7 µM (inactive)
GI50 [31]: 50.5 µM (inactive)
GI50 [32]: 56.9 µM (inactive)
GI50 [33]: 41 µM (inactive)
GI50 [34]: 33.3 µM (inactive)
GI50 [35]: 17.3 µM (inactive)
GI50 [36]: 41.6 µM (inactive)
GI50 [37]: 19.5 µM (inactive)
GI50 [39]: 16.4 µM (inactive)
GI50 [40]: 18.5 µM (inactive)
GI50 [56]: 15.3 µM (inactive)
GI50 [41]: 17.5 µM (inactive)
GI50 [42]: 14.1 µM (inactive)
GI50 [43]: > 100 µM (inactive)
GI50 [44]: 47.4 µM (inactive)
GI50 [45]: 68.5 µM (inactive)
GI50 [46]: 21.5 µM (inactive)
GI50 [47]: 14.1 µM (inactive)
GI50 [57]: 17.1 µM (inactive)
GI50 [48]: 17.1 µM (inactive)
GI50 [49]: 24.8 µM (inactive)
GI50 [50]: 17.9 µM (inactive)
GI50 [51]: 16.5 µM (inactive)
GI50 [52]: 17.7 µM (inactive)
GI50 [53]: 12.7 µM (inactive)

O=C(O)CSCCc1ccccc1
GI50 [1]: > 100 µM (inactive)
GI50 [2]: > 100 µM (inactive)
GI50 [3]: > 100 µM (inactive)
GI50 [4]: > 100 µM (inactive)
GI50 [5]: > 100 µM (inactive)
GI50 [6]: > 100 µM (inactive)
GI50 [8]: > 100 µM (inactive)
GI50 [9]: > 100 µM (inactive)
GI50 [10]: > 100 µM (inactive)
GI50 [11]: > 100 µM (inactive)
GI50 [12]: > 100 µM
GI50 [13]: 0.156 µM (active)
GI50 [14]: > 100 µM (inactive)
GI50 [15]: > 100 µM (inactive)
GI50 [16]: > 100 µM (inactive)
GI50 [17]: > 100 µM (inactive)
GI50 [18]: > 100 µM (inactive)
GI50 [19]: > 100 µM (inactive)
GI50 [54]: > 100 µM (inactive)
GI50 [20]: > 100 µM (inactive)
GI50 [21]: > 100 µM (inactive)
GI50 [22]: > 100 µM (inactive)
GI50 [23]: > 100 µM (inactive)
GI50 [24]: > 100 µM (inactive)
GI50 [25]: > 100 µM (inactive)
GI50 [26]: > 100 µM (inactive)
GI50 [27]: > 100 µM (inactive)
GI50 [28]: > 100 µM (inactive)
GI50 [29]: > 100 µM (inactive)
GI50 [55]: > 100 µM (inactive)
GI50 [30]: > 100 µM (inactive)
GI50 [31]: > 100 µM (inactive)
GI50 [32]: > 100 µM (inactive)
GI50 [33]: > 100 µM (inactive)
GI50 [34]: > 100 µM (inactive)
GI50 [35]: > 100 µM (inactive)
GI50 [36]: > 100 µM (inactive)
GI50 [37]: > 100 µM (inactive)
GI50 [38]: > 100 µM (inactive)
GI50 [58]: > 100 µM (inactive)
GI50 [39]: > 100 µM (inactive)
GI50 [40]: > 100 µM (inactive)
GI50 [56]: > 100 µM (inactive)
GI50 [41]: > 100 µM (inactive)
GI50 [42]: > 100 µM (inactive)
GI50 [43]: > 100 µM (inactive)
GI50 [44]: > 100 µM (inactive)
GI50 [45]: > 100 µM (inactive)
GI50 [46]: > 100 µM (inactive)
GI50 [47]: > 100 µM (inactive)
GI50 [57]: > 100 µM (inactive)
GI50 [48]: > 100 µM (inactive)
GI50 [49]: > 100 µM (inactive)
GI50 [50]: > 100 µM (inactive)
GI50 [51]: > 100 µM (inactive)
GI50 [52]: > 100 µM (inactive)
GI50 [53]: > 100 µM (inactive)
